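The compound was tested at five concentrations on cells cultured in 96-well plates, with a 48-hour exposure period. TGI: total growth inhibition.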
How the values were obtained:
Assay in all cases: growth of human tumour cells (NCI), 48 h
[1] = system: OVCAR-5 ovarian
[2] = system: NCI-H522 lung
[3] = system: EKVX NSCLC
[4] = system: SK-MEL-28 melanoma
[5] = system: OVCAR-3 ovarian
[6] = system: UACC-62 melanoma
[7] = system: OVCAR-4 ovarian
[8] = system: SK-OV-3 ovarian
[9] = system: COLO 205 colon
[10] = system: SK-MEL-2 melanoma

SMILES: CC(C)(C)OC(=O)C1C(=O)NC(=O)CC1C(COCc1ccccc1)OCc1ccccc1 (configuration not stated)
- TGI [1]: 41.1 µM
- TGI [2]: 35.8 µM
- TGI [3]: 55.5 µM
- TGI [4]: 32.1 µM
- TGI [5]: 46.3 µM

SMILES: S=C1CC(c2ccccc2)Sc2ccc(Cl)cc2N1 (configuration not stated)
- TGI [1]: > 100 µM
- TGI [2]: > 100 µM
- TGI [3]: > 100 µM
- TGI [6]: > 100 µM
- TGI [4]: > 100 µM
- TGI [7]: > 100 µM
- TGI [5]: > 100 µM
- TGI [8]: > 100 µM
- TGI [9]: > 100 µM

SMILES: O=[N+]([O-])c1ccc(C2=Nc3ccccc3SC(c3ccccc3)C2)cc1 (configuration not stated)
- TGI [1]: 36.6 µM
- TGI [2]: 26.7 µM
- TGI [10]: 33.2 µM
- TGI [3]: 44.3 µM
- TGI [6]: 27.3 µM
- TGI [4]: 41.6 µM
- TGI [7]: 27.3 µM
- TGI [8]: 46 µM
- TGI [9]: 31.8 µM

SMILES: O=C1CCCc2cc3c(cc21)CC1(C3)Cc2ccc3c(c2C1)C(=O)CCC3 (configuration not stated)
- TGI [1]: > 100 µM
- TGI [2]: > 100 µM
- TGI [10]: 88.9 µM
- TGI [3]: > 100 µM
- TGI [4]: 80.6 µM
- TGI [7]: > 100 µM
- TGI [5]: 69.9 µM
- TGI [8]: > 100 µM
- TGI [9]: 34.9 µM

SMILES: CCOC(=O)C1CN(C2CC2)CCC1=O (configuration not stated)
- TGI [1]: > 100 µM
- TGI [10]: > 100 µM
- TGI [3]: > 100 µM
- TGI [6]: > 100 µM
- TGI [4]: > 100 µM
- TGI [7]: > 100 µM
- TGI [5]: > 100 µM
- TGI [8]: > 100 µM
- TGI [9]: > 100 µM

SMILES: COC(=O)[C@H](Cc1ccccc1)NC(=O)c1ccc(CNC(=O)/C=C/c2cccc(Oc3ccccc3)c2)cc1
- TGI [1]: > 100 µM
- TGI [10]: 27.7 µM
- TGI [3]: > 100 µM
- TGI [6]: 24 µM
- TGI [4]: 23.9 µM
- TGI [7]: > 100 µM
- TGI [5]: 40.4 µM
- TGI [8]: > 100 µM
- TGI [9]: 42.1 µM

SMILES: COc1ccc(N=NC(=Nc2ccc(F)cc2)c2ccc(N(CCC#N)CCC#N)cc2)cc1
- TGI [1]: > 100 µM
- TGI [2]: 47 µM
- TGI [3]: > 100 µM
- TGI [6]: 57.3 µM
- TGI [4]: > 100 µM
- TGI [7]: > 100 µM
- TGI [5]: > 100 µM
- TGI [8]: > 100 µM
- TGI [9]: > 100 µM

SMILES: O=C1CCc2ccc3c(c21)CC1(Cc2ccccc2C1)C3
- TGI [1]: 44.2 µM
- TGI [2]: 92.4 µM
- TGI [10]: 38.7 µM
- TGI [4]: 88.9 µM
- TGI [7]: > 100 µM
- TGI [5]: 28.8 µM
- TGI [8]: > 100 µM
- TGI [9]: > 100 µM

SMILES: c1ccc(-c2cnc(-c3ccc(-c4ncc(-c5ccccc5)o4)cc3)o2)cc1
- TGI [1]: > 100 µM
- TGI [2]: > 100 µM
- TGI [3]: > 100 µM
- TGI [6]: > 100 µM
- TGI [4]: > 100 µM
- TGI [7]: > 100 µM
- TGI [5]: > 100 µM
- TGI [8]: > 100 µM
- TGI [9]: > 100 µM

SMILES: CC(C)(C)OC(=O)n1c(-c2ccccc2F)cc(=O)c2cc3c(cc21)OCO3
- TGI [1]: > 100 µM
- TGI [10]: > 100 µM
- TGI [3]: > 100 µM
- TGI [6]: > 100 µM
- TGI [4]: > 100 µM
- TGI [7]: > 100 µM
- TGI [5]: > 100 µM

SMILES: COc1cc2c(cc1OC)C13CC[N+]4(C)CC5=CCOC6CC(=O)N2C1C6C5CC34[O-] (configuration not stated)
- TGI [2]: > 100 µM
- TGI [3]: > 100 µM
- TGI [6]: > 100 µM
- TGI [4]: > 100 µM
- TGI [7]: > 100 µM
- TGI [5]: > 100 µM
- TGI [8]: > 100 µM
- TGI [9]: > 100 µM

SMILES: CCOC(=O)C1(C(=O)OCC)CCCN1C(=O)[C@H](CNC(=O)OC(C)(C)C)NC(=O)OCc1ccccc1
- TGI [1]: > 100 µM
- TGI [10]: > 100 µM
- TGI [3]: > 100 µM
- TGI [4]: > 100 µM
- TGI [7]: > 100 µM
- TGI [5]: > 100 µM
- TGI [8]: > 100 µM
- TGI [9]: > 100 µM

SMILES: COc1cc(CNc2nc3cc(C(F)(F)F)ccc3nc2-c2ccccc2)cc(OC)c1OC
- TGI [2]: > 100 µM
- TGI [3]: 50.2 µM
- TGI [6]: 33.3 µM
- TGI [4]: > 100 µM
- TGI [5]: > 100 µM
- TGI [9]: 37.3 µM

SMILES: COC(=O)C1=C(O)C(C(=O)OC)[C@@]2(O)[C@@H](C(=O)OC)[C@H](C)[C@@H](C)[C@@H]1[C@@H]2C(=O)OC (some centres not stated)
- TGI [1]: > 100 µM
- TGI [2]: 92.2 µM
- TGI [10]: > 100 µM
- TGI [3]: > 100 µM
- TGI [6]: > 100 µM
- TGI [4]: > 100 µM
- TGI [5]: 78.2 µM
- TGI [8]: > 100 µM

SMILES: OC1(c2ccc(Cl)cc2)c2ccc(CN3CCCC3)cc2C2=NCCN21 (configuration not stated)
- TGI [1]: 31.9 µM
- TGI [10]: 34.2 µM
- TGI [3]: 32.7 µM
- TGI [6]: 28.1 µM
- TGI [4]: 22.7 µM
- TGI [7]: 25.1 µM
- TGI [5]: 31.7 µM
- TGI [8]: 27.3 µM
- TGI [9]: 22.7 µM

SMILES: Nc1nc(Nc2ccccc2)sc1C(=O)c1c[nH]c2ccccc12
- TGI [1]: 24.9 µM
- TGI [10]: 29.8 µM
- TGI [3]: 27.4 µM
- TGI [6]: 28.9 µM
- TGI [4]: 26.3 µM
- TGI [7]: 23.5 µM
- TGI [5]: 26.6 µM
- TGI [8]: 32.8 µM
- TGI [9]: 17.1 µM

SMILES: CCCCC/C(C=O)=C\c1ccccc1
- TGI [10]: > 100 µM
- TGI [3]: > 100 µM
- TGI [6]: > 100 µM
- TGI [4]: > 100 µM
- TGI [7]: > 100 µM
- TGI [8]: > 100 µM
- TGI [9]: > 100 µM

SMILES: CC(C)CCn1nc(N)c2nc3ccccc3nc21
- TGI [1]: > 100 µM
- TGI [2]: > 100 µM
- TGI [10]: > 100 µM
- TGI [3]: > 100 µM
- TGI [6]: > 100 µM
- TGI [4]: > 100 µM
- TGI [7]: > 100 µM
- TGI [5]: > 100 µM
- TGI [8]: > 100 µM

SMILES: CSC(SC)=C1C(=O)N(c2ccccc2)N=C1C
- TGI [1]: > 100 µM
- TGI [2]: 59 µM
- TGI [10]: 46.8 µM
- TGI [3]: 54.6 µM
- TGI [6]: 89.9 µM
- TGI [7]: > 100 µM
- TGI [8]: 91.9 µM
- TGI [9]: 36.3 µM

SMILES: Cc1cn([C@H]2C[C@](C)(CO)N(C)O2)c(=O)[nH]c1=O
- TGI [1]: > 100 µM
- TGI [2]: > 100 µM
- TGI [10]: > 100 µM
- TGI [3]: > 100 µM
- TGI [6]: > 100 µM
- TGI [4]: > 100 µM
- TGI [7]: > 100 µM
- TGI [8]: > 100 µM
- TGI [9]: > 100 µM

SMILES: CCCOC(=O)NC(C)C(=O)NC(CCC(=O)NC(CCCC(N)C(=O)O)C(=O)NC(C)C(=O)O)C(=O)O (configuration not stated)
- TGI [1]: > 100 µM
- TGI [2]: > 100 µM
- TGI [10]: > 100 µM
- TGI [3]: > 100 µM
- TGI [6]: 33.7 µM
- TGI [4]: 44.9 µM
- TGI [7]: 70.6 µM
- TGI [5]: > 100 µM
- TGI [9]: 48.7 µM

SMILES: COc1cc(C=C2C(=O)NC(=S)NC2=O)cc(OC)c1OC
- TGI [1]: > 100 µM
- TGI [10]: > 100 µM
- TGI [3]: > 100 µM
- TGI [6]: > 100 µM
- TGI [4]: > 100 µM
- TGI [7]: > 100 µM
- TGI [5]: > 100 µM
- TGI [8]: > 100 µM
- TGI [9]: > 100 µM

SMILES: O=C(O)CSC(NC(=O)C(C(F)(F)F)C(F)(F)F)(C(F)(F)F)C(F)(F)F
- TGI [1]: > 100 µM
- TGI [10]: > 100 µM
- TGI [3]: > 100 µM
- TGI [4]: > 100 µM
- TGI [8]: > 100 µM
- TGI [9]: > 100 µM

SMILES: Clc1ccc(Cl)c(SCCCN2CCNCC2)c1
- TGI [1]: 32.5 µM
- TGI [2]: 34 µM
- TGI [3]: 34.7 µM
- TGI [6]: 7.85 µM
- TGI [4]: 26.9 µM
- TGI [7]: 47.9 µM
- TGI [5]: 47.4 µM
- TGI [8]: 32 µM
- TGI [9]: 38.4 µM
